Source: patent publication EP0569096A1, “Depot preparation” (Akzo Nobel N.V., priority 1992, dated 1993)
Structures can show the parent of a compound that is named as a salt.

Key:
physchem = settings: water
[1] = water solubility of the salts; settings: general statement in the disclosure of the invention
[2] = solubility of the crystalline form compared with the amorphous solid; type: physicochemical; settings: crystals formed after storage for two weeks at 50° C
Experimental: (§1) The pamoate salt of EXAMPLE I was stored for two weeks at 50° C, and crystals spontaneously formed. […] Furthermore they were easier to segregate for micronization, and easier to form a suspension with.

[3] = stability of the crystalline form compared with the amorphous solid; type: physicochemical; settings: crystals formed after storage for two weeks at 50° C
Experimental: as §1

Compound CN1C[C@H]2c3ccccc3Oc3ccc(Cl)cc3[C@@H]2C1 (relative stereo) [fumarate] has a solubility (physchem) of 1000 µg/mL.
In the case of CN1C[C@H]2c3ccccc3Oc3ccc(Cl)cc3[C@@H]2C1 (relative stereo) [pamoate salt], the “solubility (in words)” value [1] is reported as “very insoluble”.
With CN1C[C@@H]2c3ccccc3Oc3ccc(Cl)cc3[C@H]2C1.O=C(O)c1cc2ccccc2c(Cc2c(O)c(C(=O)O)cc3ccccc23)c1O [crystals] the “solubility relative to the amorphous yellow solid” value [2] was “less soluble” and the “stability relative to the amorphous yellow solid” value [3] was “more stable”.
With CN1CC2c3ccccc3Oc3ccc(Cl)cc3C2C1.CN1CC2c3ccccc3Oc3ccc(Cl)cc3C2C1.O=C(O)c1cc2ccccc2c(Cc2c(O)c(C(=O)O)cc3ccccc23)c1O [hemipamoate] the “solubility (in words)” value [1] was “very insoluble”.
